# Experiments:
# [1] = target: T1, CETP (cholesteryl ester transfer protein) (Homo sapiens, UniProt P11597); assay: CETP inhibitory activity, IC50 in buffer; format: biochemical
# T1 sequence (P11597 18-493): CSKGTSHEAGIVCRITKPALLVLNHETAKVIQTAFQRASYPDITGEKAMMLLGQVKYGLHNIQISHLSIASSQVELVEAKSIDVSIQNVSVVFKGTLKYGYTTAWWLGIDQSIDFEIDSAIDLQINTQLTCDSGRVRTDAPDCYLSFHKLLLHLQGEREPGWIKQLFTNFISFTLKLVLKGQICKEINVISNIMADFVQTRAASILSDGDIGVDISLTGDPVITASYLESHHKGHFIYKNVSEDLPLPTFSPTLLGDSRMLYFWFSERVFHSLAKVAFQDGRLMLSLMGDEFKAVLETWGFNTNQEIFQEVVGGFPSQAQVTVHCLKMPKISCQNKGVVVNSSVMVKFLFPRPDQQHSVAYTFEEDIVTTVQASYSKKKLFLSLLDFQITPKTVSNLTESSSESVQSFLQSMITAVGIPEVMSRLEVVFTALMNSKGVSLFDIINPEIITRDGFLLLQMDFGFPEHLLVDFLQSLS
# [2] = target: T1, CETP (cholesteryl ester transfer protein); assay: In vitro CETP activity assay in human plasma; format: biochemical; design: tissue New Drug Development Research Center, Inc; host or cells: human EDTA plasma from healthy men
# Description: (1) Preparation of Human Pro-Apolipoprotein Al (pro-apoAl)
# The cDNA of human pro-apoAl (NCBI accession number: NM_000039) is cloned from human liver Quick-Clone™ cDNA (Clontech, Calif.) and inserted to a pET28a vector (Novagen, Germany) for bacterial expression. Expressed protein as a fusion protein with 6×His-tag at N-terminus in BL-21 Gold (DE3) (Strategene, Calif.) is purified using HiTrap Chelating (GE Healthcare, Conn.).
# (2) Preparation of Donor Microemulsion
# Pro-apoAl containing microemulsion as a donor particle is prepared following previous reports (J. Biol. Chem., 280:14918-22). Glyceryl trioleate (62.5 ng, Sigma, Mo.), 3-sn-phosphatidylcholine (583 ng, Wako Pure Chemical Industries, Japan), and cholesteryl BODIPY® FL C12 (250 ng, Invitrogen, Calif.) are dissolved in 1 mL of chloroform. The solution is evaporated, then residual solvent is removed in vacuum for more than 1 hr. The dried lipid mixture is dissolved in 500 μL of the assay buffer (50 mM Tris-HCl (pH7.4) containing 150 mM NaCl and 2 mM EDTA) and sonicated at 50° C. with a microtip (MICROSON™ ULTRASONIC CELL DISRUPTOR, Misonix, Farmingdale, N.Y.) at output power 006 for 2 min. After sonication, the solution is cooled to 40° C., added to 100 μg of human pro-apoAl, and sonicated at output power 004 for 5 min at 40° C. The solution, BODIPY-CE microemulsion as a donor molecule is stored at 4° C. after filtration through a 0.45 μm PVDF filter.
# (3) In Vitro CETP Activity Assay in Human Plasma
# Human EDTA plasma samples from healthy men are purchased from New Drug Development Research Center, Inc. Donor solution is prepared by a dilution of donor microemulsion with assay buffer. Human plasma (50 μL), assay buffer (35 μL) and test compound dissolved in dimethylsulfoxide (1 μL) are added to each well of 96 well half area black flat bottom plate. The reaction is started by the addition of donor solution (14 μL) into each well. Fluorescence intensities are measured every 30 min at 37° C. with excitation wave length of 485 nm and emission wavelength of 535 nm. The CETP activity (Fl/min) is defined as the changes of fluorescence intensity from 30 to 90 min.
SMILES,IC50 [1] [µM],IC50 [2] [µM]
CCN(CC1CCCCC1)c1nc2cc(F)ccc2cc1CN(Cc1cc(C(F)(F)F)cc(C(F)(F)F)c1)c1nnn(C)n1 [Example 2-13],0.032,0.082
CCN(CC1CCCCC1)c1nc2ccc(F)cc2cc1CN(Cc1cc(C(F)(F)F)cc(C(F)(F)F)c1)c1nnn(C)n1 [Example 2-12],0.12,0.094
"CCN(CC1CCCC1)c1nc2ccccc2cc1CN(Cc1cc(C(F)(F)F)cc(C(F)(F)F)c1)c1nnn(C)n1 [Example 1, N-[(3-{N′-[3,5-bis(trifluoromethyl)benzyl]-N′-(2-methyl-2H-tetrazol-5-yl)amino}methyl)quinolin-2-yl]-N-(cyclopentylmethyl)ethylamine]",0.16,0.26
"Cn1nnc(N(Cc2cc(C(F)(F)F)cc(C(F)(F)F)c2)Cc2cc3cc(F)c(F)cc3nc2N2CCC[C@@H]2[C@H]2CC[C@H](C(=O)O)CC2)n1 [Example 21, trans-4-{(R)-1-[3-({N-[3,5-bis(trifluoromethyl)benzyl]-N-(2-methyl-2H-tetrazol-5-yl)amino}methyl)-6,7-difluoroquinolin-2-yl]pyrrolidin-2-yl}cyclohexanecarboxylic acid]",0.021,0.045
"Cn1nnc(N(Cc2cc(C(F)(F)F)cc(C(F)(F)F)c2)Cc2cc3cc(F)c(F)cc3nc2N2CCC[C@@H]2[C@H]2CC[C@H](CC(=O)O)CC2)n1 [Example 28, trans-(4-{(R)-1-[3-({N-[3,5-bis(trifluoromethyl)benzyl]-N-(2-methyl-2H-tetrazol-5-yl)amino}methyl)-6,7-difluoroquinolin-2-yl]pyrrolidin-2-yl}cyclohexyl)acetic acid]",0.025,0.039
CCN(CC1CCCC1)c1nc2cc(F)c(F)cc2cc1CN(Cc1cc(C(F)(F)F)cc(C(F)(F)F)c1)c1nnn(C)n1 [Example 2-8],0.04,0.024
CCN(CC1CCOCC1)c1nc2cc(F)c(F)cc2cc1CN(Cc1cc(C(F)(F)F)cc(C(F)(F)F)c1)c1nnn(C)n1 [Example 2-22],0.16,0.03
CCC(CC)[C@H]1CCCN1c1nc2cc(F)c(F)cc2cc1CN(Cc1cc(C(F)(F)F)cc(C(F)(F)F)c1)c1nnn(C)n1 [Example 3-4],0.06,0.062
CCOC(=O)C[C@H]1CC[C@H](CN(CC)c2nc3ccccc3cc2CN(Cc2cc(C(F)(F)F)cc(C(F)(F)F)c2)c2nnn(C)n2)CC1 [Example 2-17],0.25,0.22
"CCN(CC1CCCC1)c1nc2cc(C#N)ccc2cc1CN(Cc1cc(C(F)(F)F)cc(C(F)(F)F)c1)c1nnn(C)n1 [Example 6, 3-({N-[3,5-bis(trifluoromethyl)benzyl]-N-(2-methyl-2H-tetrazol-5-yl)amino}methyl)-2-[N′-(cyclopentylmethyl)-N′-ethylamino]quinoline-7-carbonitrile]",0.054,0.039
CCOC[C@H]1CCCN1c1nc2cc(F)ccc2cc1CN(Cc1cc(C(F)(F)F)cc(C(F)(F)F)c1)c1nnn(C)n1 [Example 3-5],0.12,0.11
Cn1nnc(N(Cc2cc(C(F)(F)F)cc(C(F)(F)F)c2)Cc2cc3ccc(F)cc3nc2N2CCCC2C2CCCCC2)n1 (stereo not shown) [Example 3-2],0.039,0.043
CCN(CC1CCCC1)c1nc2cc(C)ccc2cc1CN(Cc1cc(C(F)(F)F)cc(C(F)(F)F)c1)c1nnn(C)n1 [Example 2-6],0.028,0.092
CCN(CC1CCCC1)c1nc2cc(F)cc(F)c2cc1CN(Cc1cc(C(F)(F)F)cc(C(F)(F)F)c1)c1ncc(N2CCOCC2)cn1 [Example 13-4],0.0058,0.033
CCN(CC1CCCC1)c1nc2cc(OC)ccc2cc1CN(Cc1cc(C(F)(F)F)cc(C(F)(F)F)c1)c1nnn(C)n1 [Example 2-7],0.044,0.075
CCN(CC1CCCC1)c1nc2cc(F)c(F)c(F)c2cc1CN(Cc1cc(C(F)(F)F)cc(C(F)(F)F)c1)c1nnn(C)n1 [Example 2-10],0.036,0.037
CCN(CC1CCCCC1)c1nc2cc(F)c(F)cc2cc1CN(Cc1cc(C(F)(F)F)cc(C(F)(F)F)c1)c1nnn(C)n1 [Example 2-15],0.043,0.062

# Reference: US8232403B2, “Bicyclic derivatives as CETP inhibitors” (Novartis AG, priority 2006, dated 2012)
